Measured values as given in PMC5701182, “The Aβ oligomer eliminating D-enantiomeric peptide RD2 improves cognition without changing plaque pathology” (Scientific Reports, 2017).
Non-standard residues stand in square brackets, D forms with d. Residues, ends and D or L forms follow the SMILES beside them.

How the values were obtained:
Aβ(1-42) oligomers = target: T1, Aβ(1-42) oligomers (Homo sapiens, UniProt P05067); assay: QIAD assay (quantitative determination of interference with Aβ aggregate size distribution); assay type: biochemical
T1 construct: Synthetic and recombinant Aβ(1-42) with >95% purity was purchased as lyophilized powder; purchased Bachem (Germany) (synthetic) / Isoloid (Germany) (recombinant)
Description: For the evaluation of Aβ oligomer elimination of RD2, a QIAD assay (quantitative determination of interference with Aβ aggregate size distribution) was performed according to Brener et al.[23]. Briefly, 80 µM Aβ(1-42) was pre-incubated for 4.5 h to enrich Aβ oligomers. Then either RD2 or D3 were added to the pre-incubated solution with the resulting concentration of 20 µM RD2 or D3 and co-incubated for further 40 min. The samples were loaded on top of a density gradient containing 5 to 50% (w/v) iodixanol (OptiPrep, Axis-Shield, Norway) and centrifuged for 3 h at 4 °C and 259.000 × g (Optima TL-100, Beckman Coulter, USA). After centrifugation, 14 fractions à 140 μl were harvested by upward displacement. Fraction 1 from the top of the gradient was the least dense fraction while fraction 14 from just above the bottom was the densest fraction. The pellet of each tube was mixed with 60 µl of a 6 M guanidine hydrochloride solution and boiled for 10 min. The resulting solution represents fraction 15. All fractions were analysed with respect to their Aβ(1-42) content by analytical RP-HPLC (reversed phase-high performance liquid chromatography) and UV absorbance detection at 214 nm. The data for the D3 values and the Aβ(1-42) controls without compounds were already previously used in Brener et al.[23]. Analyses were done at least in quadruplicates (D3 and RD2 n = 4, Aβ(1-42) n = 11). […]

[1] = target: T2, Aβ(1-42) fibril formation (Homo sapiens, UniProt P05067); assay: Thioflavin T (ThT) fibril formation assay; assay type: biochemical; conditions: 20 µM Aβ(1-42), 5 µM ThT, RD2 80-1.25 µM, 21 h, 37 °C; logistic fit; three replicates; read-out: IC50 of inhibition of Aβ(1-42) fibril formation
T2 construct: Synthetic and recombinant Aβ(1-42) with >95% purity was purchased as lyophilized powder; purchased Bachem (Germany) (synthetic) / Isoloid (Germany) (recombinant)
Description: The Thioflavin T (ThT) assay is a commonly used assay to visualize and quantify the fibrilisation of Aβ, since this dye binds to amyloidogenic cross-β-sheet structures. While Aβ aggregates into fibrils, the ThT fluorescence intensities increase until a saturation level is accomplished. Within this test, we analysed the inhibitory function of RD2 on the Aβ(1-42) fibril formation. 20 µM Aβ(1-42) was incubated with 5 µM ThT and different concentrations of RD2 (serial dilution from 80 µM till 1.25 µM) for IC50 calculation. ThT fluorescence was monitored over 21 h every 5 min at λex = 440 nm and λem = 490 nm in a fluorescence plate reader (Polarstar Optima, Germany) at 37 °C. Correction was done using all supplements without Aβ. For data evaluation, the fibril masses were determined by subtracting the baseline fluorescence intensities from the top and normalised to the Aβ control to calculate the inhibition in percent. The IC50 resulted from the compound concentration at the inflection point obtained by a logistic fit of the data (OriginPro 8.5 G, OriginLab, USA).

PC-12 cells = assay: MTT cell viability assay, PC-12 cells; assay type: cell-based, rat; conditions: 5 µM RD2 without Aβ, one-way ANOVA n.s., p = 0.4
Description: (§1) MTT (3-(4,5-Dimethylthiazol-2-yl)-2,5-diphenyl-tetrazolium bromide) based cell viability assays were accomplished to examine the cytotoxicity of Aβ(1-42) in the presence of RD2 on two different cell lines, PC-12 (rat pheochromocytoma cell line), and SH-SY5Y (human neuroblastoma cell line) cells.
(§2) PC-12 cells (DSMZ, Germany) were cultured in DMEM medium supplemented with 10% fetal calf serum, 1% antibiotics (Penicillin/Streptomycin) (all Sigma-Aldrich, USA), and 5% horse serum (PAA Laboratories GmbH, Germany) on collagen A-coated (Biochrom GmbH, Germany) tissue culture flasks (SPL Life Sciences Co., Korea). SH-SY5Y cells (DSMZ, Germany) were cultured in DMEM medium supplemented with 20% fetal calf serum and 1% antibiotics (Penicillin/Streptomycin) (all Sigma-Aldrich, USA) on tissue culture flasks (SPL Life Sciences Co., Korea). Cells were allowed to grow in a humidified incubator with 5% CO2 at 37 °C and a maximum of 12 (PC-12 cells) or 21 (SH-SY5Y cells) passages. Medium was changed every two days and cells were passaged every three to five days, according to their confluence.
(§3) MTT test was performed according to the manufacturer’s protocol (CellProliferation Kit I; Roche, Switzerland). […] The arithmetic mean of all measurements per approach was calculated. Results are represented as the percentage of MTT reduction, assuming that the absorbance of control cells was 100%.

SH-SY5Y cells = assay: MTT cell viability assay, SH-SY5Y cells; assay type: cell-based, human; conditions: 5 µM RD2 without Aβ, one-way ANOVA n.s., p = 0.4
Description: as §1, §2, §3

APP/PS1 mice [2] = assay: Body weight and general health during intraperitoneal minipump treatment; assay type: in vivo, mouse; conditions: female APP/PS1 mice, 5.3 mg/kg/day RD2 i.p. by Alzet minipump
Description: For this study, 21 APP/PS1 double transgenic mice (APPSwedish/PS1ΔE9)[36] were used. The very well characterized APP/PS1 mouse model develops cognition deficits and abundant Aβ deposits already at early age. The original mice were purchased from JAX (The Jackson Laboratory, USA) and maintained in our own colony at the University of Alabama in Birmingham. Before treatment, the mice were housed in a controlled environment (humidity 50–60%, temperature 22 °C, light from 06:00 a.m. to 6:00 p.m.) with 4 animals per cage in our facility with food and water available ad libitum. After the implantation of the Alzet minipumps the mice were housed individually.
In this study, we treated seven months old female APP/PS1 mice intraperitoneally by use of Alzet osmotic minipumps (Alzet osmotic mini pumps, model #1004, Alzet, USA). Mice were either treated with 5.3 mg/kg/day RD2 (n = 11) or placebo (0.9% sodium chloride solution) (n = 10) as control group. The Alzet minipumps were soaked in sterile 0.9% sodium chloride solution for 24 h before implantation. The next day, the pumps were filled with the appropriate solution and implanted intraperitoneally. In short, mice were anesthetised with isoflurane, the skin and the muscle layer below were cut in the midline and the pump was inserted in the abdominal cavity. Following placement of the pump, the wound was sutured. […]

APP/PS1 mice [3] = assay: Open field test; assay type: in vivo, mouse; conditions: APP/PS1 mice after three weeks of 5.3 mg/kg/day RD2 i.p.
Description: (§4) In this study, we treated seven months old female APP/PS1 mice intraperitoneally by use of Alzet osmotic minipumps (Alzet osmotic mini pumps, model #1004, Alzet, USA). Mice were either treated with 5.3 mg/kg/day RD2 (n = 11) or placebo (0.9% sodium chloride solution) (n = 10) as control group. The Alzet minipumps were soaked in sterile 0.9% sodium chloride solution for 24 h before implantation. The next day, the pumps were filled with the appropriate solution and implanted intraperitoneally. In short, mice were anesthetised with isoflurane, the skin and the muscle layer below were cut in the midline and the pump was inserted in the abdominal cavity. Following placement of the pump, the wound was sutured. Three weeks after the implantations, the mice were tested in different behavioural set ups. 28 days after the implantations, the mice were sacrificed for histopathological analysis. All mice of both groups were included in the experiments described below.
The open field test was performed to evaluate the activity and anxiety behaviour of the mice. The arena (42 cm × 42 cm surrounded with clear Plexiglass sides (20 cm high)) was subdivided into two areas: border and centre. […] Time spent in both areas was analysed. After each testing day and in between the mice, the apparatus was wiped out with chlorhexidine and 70% ethanol and allowed to air-dry.

APP/PS1 mice [4] = assay: Zero maze; assay type: in vivo, mouse; conditions: APP/PS1 mice after three weeks of 5.3 mg/kg/day RD2 i.p., mean ± SEM, placebo 5.0 ± 0.6
Description: as §4
Similar to the open field test, the zero maze was used to assess the anxiety behaviour of the mice. The maze consisted of a circular arena (65 cm diameter) that is raised 40 cm above the table. The maze was separated into four equal parts, with two parts with 15 cm high walls of opaque material and two only 0.5 cm high walls. […] Analysed was the time mice spent in the open and closed arms. […]

APP/PS1 mice [5] = assay: Morris water maze; assay type: in vivo, mouse; conditions: 5.3 mg/kg/day RD2 i.p., placebo 19.0 ± 1 cm/s
Description: as §4
The mice were tested daily for one week in a water maze. Our version of the Morris water maze consists of a blue circular tank (120 cm diameter) filled with clear water (22 °C ± 1 °C). […] Mice were recorded with a camera driven tracker system (Ethovision XT10, Noldus, The Netherlands). It was analysed the time the mice needed to escape to the hidden platform (escape latency) and the time they spent in the target quadrant (probe trial).

[6] = previous pharmacokinetic studies of D3 and RD2; cited from earlier work
Source text: Nowadays, the inhibition of the formation of Aβ oligomers and the elimination of already present Aβ oligomers is thought to be one of the most promising strategies to modify disease progression according to the modified amyloid cascade hypothesis. Currently registered drugs can only ameliorate symptoms and cannot slow down disease progression. Previously, we have reported about a D-enantiomeric peptide, named “D3”, which was identified by mirror image phage display and solely consists of D-enantiomeric amino acid residues[21],[22]. D3 inhibits the formation of regular Aβ fibrils, eliminates di ...

T1 sequence (P05067 672-713 limits assumed): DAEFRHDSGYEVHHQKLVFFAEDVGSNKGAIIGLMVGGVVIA
T2 sequence (P05067 672-713 limits assumed): as above

Q: Which results are given for `CC(C)C[C@@H](NC(=O)[C@H](NC(=O)[C@H]1CCCN1)[C@H](C)O)C(=O)N[C@H](Cc1c[nH]cn1)C(=O)N[C@@H](C(=O)N[C@H](Cc1c[nH]cn1)C(=O)N[C@H](CC(N)=O)C(=O)N[C@H](CCCNC(=N)N)C(=O)N[C@H](CCCNC(=N)N)C(=O)N[C@H](CCCNC(=N)N)C(=O)N[C@H](CCCNC(=N)N)C(=O)N[C@H](CCCNC(=N)N)C(N)=O)[C@H](C)O` [RD2] (H-[dP][dT][dL][dH][dT][dH][dN][dR][dR][dR][dR][dR]-NH2)?
A: reduction of the amount of Aβ oligomers in fractions 4 to 6 (Aβ(1-42) oligomers; 20 µM RD2 added to 80 µM Aβ(1-42) pre-incubated 4.5 h, co-incubated 40 min, density gradient centrifugation, RP-HPLC UV 214 nm, n = 4): 71%; IC50 (Aβ(1-42) oligomers; QIAD with pooled fractions 4 to 6, 1-40 µM RD2 on 80 µM Aβ(1-42), logistic fit, n = 3, read-out: IC50 of Aβ(1-42) oligomer elimination): 8.4 µM; IC50 [1]: 7.7 µM; cell viability with RD2 alone compared to buffer control (PC-12 cells): did not result in any change of cell viability; cell viability with RD2 alone compared to buffer control (SH-SY5Y cells): did not result in any change of cell viability; physiological parameters, general health and discomfort (APP/PS1 mice [2]; 28 days): neither changed any obvious physiological parameters; body weight (APP/PS1 mice [2]; n = 11, placebo 25.7 ± 0.9 g, mean ± SEM, SEM): 26.8 ± 0.8 g; speed in the open field (APP/PS1 mice [3]; mean ± SEM, placebo 8.9 ± 0.9 cm/s, SEM): 8.8 ± 0.7 cm/s; activity or anxiety levels versus placebo (APP/PS1 mice [3]; open field and zero maze tests): no significant differences in activity or anxiety levels; average speed of movement in the zero maze (APP/PS1 mice [4]): 4.8 ± 0.4 cm/s; swimming speed in the Morris water maze (APP/PS1 mice [5]): 18.8 ± 1 cm/s; bioavailability of RD2 compared to D3 [6]: higher bioavailability
